≈ marks a conversion by molar mass, not a printed value.
What was measured:
Type in all cases: cell-based
[1] = test system: Haemophilus infuenzae ATCC43095; assay: In vitro antibacterial activity, microbroth dilution method (CLSI method), test bacterium A; conditions: for MIC: read-out: MIC (minimum inhibitory concentration), test bacterium A
Protocol: (§1) In vitro antibacterial activities of the compounds of the present invention against various test bacteria were measured according to the microbroth dilution method (CLSI method). Among them, the bacteria C, D and E are erythromycin resistant bacteria. The MIC values (minimum inhibitory concentration, μg/ml) for the test bacteria A and B are exemplified in Table 22.

[2] = test system: Streptococcus pneumoniae ATCC49619; assay: In vitro antibacterial activity, microbroth dilution method (CLSI method), test bacterium B; conditions: for MIC: read-out: MIC (minimum inhibitory concentration), test bacterium B
Protocol: as §1

[3] = test system: Streptococcus pyogenes M808; assay: In vitro antibacterial activity, microbroth dilution method (CLSI method), test bacterium D (erythromycin resistant); conditions: read-out: MIC (minimum inhibitory concentration), test bacterium D
Protocol: as §1

[4] = test system: Streptococcus pneumoniae ATCC700904; assay: In vitro antibacterial activity, microbroth dilution method (CLSI method), test bacterium C (erythromycin resistant); conditions: read-out: MIC (minimum inhibitory concentration), test bacterium C
Protocol: as §1

| SMILES | MIC [1] [µg/mL] | MIC [2] [µg/mL] | MIC [3] [µg/mL] | MIC [4] [µg/mL] | MIC (minimum inhibitory concentration), test bacterium A [1] [µg/mL] | MIC (minimum inhibitory concentration), test bacterium B [2] [µg/mL] |
| --- | --- | --- | --- | --- | --- | --- |
| CC[C@H]1OC(=O)[C@H](C)[C@@H](O[C@H]2C[C@@](C)(OC)[C@@](O)(CN(C)C(=O)CN(CC)CC)[C@H](C)O2)[C@H](C)[C@@H](O[C@@H]2O[C@H](C)C[C@H](N(C)C)[C@H]2O)[C@@](C)(OC)C[C@@H](C)C(=O)[C@H](C)[C@H]2NC(=O)O[C@@]21C [Example329] | 8 (≈ 8.61 µM) | 0.03 (≈ 0.0323 µM) |  |  |  |  |
| CC[C@H]1OC(=O)[C@H](C)[C@@H](O[C@H]2C[C@@](C)(OC)[C@@](O)(CN(C)CCN(C)C)[C@H](C)O2)[C@H](C)[C@@H](O[C@@H]2O[C@H](C)C[C@H](N(C)C)[C@H]2O)[C@@](C)(OC)C[C@@H](C)C(=O)[C@H](C)[C@H]2N(C)C(=O)O[C@]12C [Example183] | 8 (≈ 8.88 µM) | 0.016 (≈ 0.0178 µM) |  |  |  |  |
| CC[C@H]1OC(=O)[C@H](C)[C@@H](O[C@H]2C[C@@](C)(OC)[C@@](O)(CN(C)CCN(CC)CC)[C@H](C)O2)[C@H](C)[C@@H](O[C@@H]2O[C@H](C)C[C@H](N(C)C)[C@H]2O)[C@@](C)(OC)C[C@@H](C)C(=O)[C@H](C)[C@H]2N(CCN3CCNS3(=O)=O)C(=O)O[C@]12C [Example440] | 4 (≈ 3.76 µM) | 0.03 (≈ 0.0282 µM) |  |  |  |  |
| CC[C@H]1OC(=O)[C@H](C)[C@@H](O[C@H]2C[C@@](C)(OC)[C@@](O)(CN(C)CCN(C)C(C)(C)c3ccccc3OC)[C@H](C)O2)[C@H](C)[C@@H](O[C@@H]2O[C@H](C)C[C@H](N(C)C)[C@H]2O)[C@@]2(C)C[C@@H](C)C3(NCCN4C(=O)O[C@@]1(C)[C@H]4[C@H]3C)O2 [Example341] |  |  |  |  | 4 (≈ 3.87 µM) | 0.06 (≈ 0.0581 µM) |
| CC[C@H]1OC(=O)[C@H](C)[C@@H](O[C@H]2C[C@@](C)(OC)[C@@](O)(CN(C)CCN(CC)CC)[C@H](C)O2)[C@H](C)[C@@H](O[C@@H]2O[C@H](C)C[C@H](N(C)C)[C@H]2O)[C@@](C)(OC)C[C@@H](C)C(=O)[C@H](C)[C@H]2N(CC3CCS(=O)(=O)C3)C(=O)O[C@]12C (some centres unmarked) [Example154] | 4 (≈ 3.82 µM) | 0.06 (≈ 0.0573 µM) |  |  |  |  |
| CC[C@H]1OC(=O)[C@H](C)[C@@H](O[C@H]2C[C@@](C)(OC)[C@@](O)(CN(C)CCN(C)C(C)(C)c3ccccc3OC)[C@H](C)O2)[C@H](C)[C@@H](O[C@@H]2O[C@H](C)C[C@H](N(C)C)[C@H]2O)[C@]2(C)C[C@@H](C)C(O2)[C@H](C)[C@H]2NC(=O)O[C@@]21C [Example332] | 4 (≈ 4.04 µM) | 0.06 (≈ 0.0605 µM) |  |  |  |  |
| CC[C@H]1OC(=O)[C@H](C)[C@@H](O[C@H]2C[C@@](C)(OC)[C@@](O)(CN(C)CCN(C)C(C)(C)c3ccccc3OC)[C@H](C)O2)[C@H](C)[C@@H](O[C@@H]2O[C@H](C)C[C@H](N(C)C)[C@H]2O)[C@@](C)(OC)C[C@@H](C)[C@@H]2NCCN3C(=O)O[C@@]1(C)[C@H]3[C@@H]2C [Example340] | 4 (≈ 3.82 µM) | 0.06 (≈ 0.0572 µM) |  |  |  |  |

Continued by falling MIC [1], values first:

| MIC [1] [µg/mL] | MIC [2] [µg/mL] | MIC [3] [µg/mL] | MIC [4] [µg/mL] | MIC (minimum inhibitory concentration), test bacterium A [1] [µg/mL] | MIC (minimum inhibitory concentration), test bacterium B [2] [µg/mL] | SMILES |
| --- | --- | --- | --- | --- | --- | --- |
| 4 (≈ 3.77 µM) | 0.03 (≈ 0.0283 µM) |  |  |  |  | CC[C@H]1OC(=O)[C@H](C)[C@@H](O[C@H]2C[C@@](C)(OC)[C@@](O)(CN(C)CCN(CC)C3CCC3)[C@H](C)O2)[C@H](C)[C@@H](O[C@@H]2O[C@H](C)C[C@H](N(C)C)[C@H]2O)[C@@](C)(OC)C[C@@H](C)C(=O)[C@H](C)[C@H]2N(CCCS(C)(=O)=O)C(=O)O[C@]12C [Example418] |
| 4 (≈ 3.7 µM) | 0.03 (≈ 0.0278 µM) |  |  |  |  | CC[C@H]1OC(=O)[C@H](C)[C@@H](O[C@H]2C[C@@](C)(OC)[C@@](O)(CN(CCOC)CCN(CC)CC)[C@H](C)O2)[C@H](C)[C@@H](O[C@@H]2O[C@H](C)C[C@H](N(C)C)[C@H]2O)[C@@](C)(OC)C[C@@H](C)C(=O)[C@H](C)[C@H]2N(CCNS(C)(=O)=O)C(=O)O[C@]12C [Example443] |
| 4 (≈ 3.71 µM) | 0.06 (≈ 0.0556 µM) | 4 to 8 (≈ 3.71 to 7.41 µM) | 0.12 to 0.25 (≈ 0.111 to 0.232 µM) |  |  | CC[C@H]1OC(=O)[C@H](C)[C@@H](O[C@H]2C[C@@](C)(OC)[C@@](O)(CN(C)CCN(C(C)C)C(C)C)[C@H](C)O2)[C@H](C)[C@@H](O[C@@H]2O[C@H](C)C[C@H](N(C)C)[C@H]2O)[C@@](C)(OC)C[C@@H](C)C(=NO)[C@H](C)[C@H]2N(CCNS(C)(=O)=O)C(=O)O[C@]12C [Example 458] |
| 4 (≈ 4.3 µM) | 0.03 (≈ 0.0322 µM) |  |  |  |  | CC[C@H]1OC(=O)[C@H](C)[C@@H](O[C@H]2C[C@@](C)(OC)[C@@](O)(CN(C)CCN(CC)CC)[C@H](C)O2)[C@H](C)[C@@H](O[C@@H]2O[C@H](C)C[C@H](N(C)C)[C@H]2O)[C@@](C)(OC)C[C@@H](C)C(=O)[C@H](C)[C@H]2N(O)C(=O)O[C@]12C [Example170] |
| 2 (≈ 1.88 µM) | 0.03 (≈ 0.0281 µM) |  |  |  |  | CC[C@H]1OC(=O)[C@H](C)[C@@H](O[C@H]2C[C@@](C)(OC)[C@@](O)(CN(C)CCN(C(C)C)C(C)C)[C@H](C)O2)[C@H](C)[C@@H](O[C@@H]2O[C@H](C)C[C@H](N(C)C)[C@H]2O)[C@@](C)(OC)C[C@@H](C)C(=O)[C@H](C)[C@H]2N(CCOS(N)(=O)=O)C(=O)O[C@]12C [Example456] |

— patent US9139609B2, “C-4″ position substituted macrolide derivative” (priority 2011, dated 2015)
